Reference: ChEMBL document CHEMBL3797063, “Evaluation of N-substituent structural variations in opioid receptor profile of LP1” (Bioorg Med Chem, 2016)
pEC50, pKi: −log10 of the molar value. Calls of active or inactive are those of the source. The calls are words filed in the database; no cut-off is given here.

Experiments:
Mu-type opioid receptor [1] = molecular target: Mu-type opioid receptor (Rattus norvegicus, UniProt P33535); experiment: Displacement of [3H]-DPN from rat MOR expressed in EE-HEK293 cell membranes by liquid scintillation counting
Chain of Mu-type opioid receptor (Rattus norvegicus, UniProt P33535) (P33535 whole entry): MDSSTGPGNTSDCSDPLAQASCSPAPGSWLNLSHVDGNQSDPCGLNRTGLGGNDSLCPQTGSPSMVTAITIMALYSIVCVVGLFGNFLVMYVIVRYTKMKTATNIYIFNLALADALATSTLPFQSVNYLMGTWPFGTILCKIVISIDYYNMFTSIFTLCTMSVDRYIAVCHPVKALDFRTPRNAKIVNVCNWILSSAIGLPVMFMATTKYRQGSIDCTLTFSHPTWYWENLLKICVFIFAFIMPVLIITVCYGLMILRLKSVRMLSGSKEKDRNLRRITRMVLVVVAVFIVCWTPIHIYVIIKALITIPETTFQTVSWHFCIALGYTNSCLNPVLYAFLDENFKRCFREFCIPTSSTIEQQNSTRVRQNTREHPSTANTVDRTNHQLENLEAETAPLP

[2] = molecular target: Delta-type opioid receptor (Rattus norvegicus, UniProt P33533); experiment: Displacement of [3H]-DPN from rat DOR expressed in EE-HEK293 cell membranes by liquid scintillation counting
Chain of Delta-type opioid receptor (Rattus norvegicus, UniProt P33533) (P33533 whole entry): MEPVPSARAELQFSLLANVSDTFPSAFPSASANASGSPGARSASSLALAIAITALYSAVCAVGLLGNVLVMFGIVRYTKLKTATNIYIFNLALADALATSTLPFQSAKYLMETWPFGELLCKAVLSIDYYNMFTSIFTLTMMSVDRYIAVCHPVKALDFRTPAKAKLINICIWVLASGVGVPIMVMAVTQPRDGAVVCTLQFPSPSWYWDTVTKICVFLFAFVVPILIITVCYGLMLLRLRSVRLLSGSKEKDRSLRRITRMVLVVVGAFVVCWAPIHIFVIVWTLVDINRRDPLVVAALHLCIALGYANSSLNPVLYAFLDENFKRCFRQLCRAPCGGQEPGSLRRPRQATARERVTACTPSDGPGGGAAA

[3] = molecular target: T1, Kappa-type opioid receptor (Homo sapiens, UniProt P41145); experiment: Displacement of [3H]-DPN from human KOR expressed in EE-HEK293 cell membranes by liquid scintillation counting
T1 sequence (P41145 whole entry): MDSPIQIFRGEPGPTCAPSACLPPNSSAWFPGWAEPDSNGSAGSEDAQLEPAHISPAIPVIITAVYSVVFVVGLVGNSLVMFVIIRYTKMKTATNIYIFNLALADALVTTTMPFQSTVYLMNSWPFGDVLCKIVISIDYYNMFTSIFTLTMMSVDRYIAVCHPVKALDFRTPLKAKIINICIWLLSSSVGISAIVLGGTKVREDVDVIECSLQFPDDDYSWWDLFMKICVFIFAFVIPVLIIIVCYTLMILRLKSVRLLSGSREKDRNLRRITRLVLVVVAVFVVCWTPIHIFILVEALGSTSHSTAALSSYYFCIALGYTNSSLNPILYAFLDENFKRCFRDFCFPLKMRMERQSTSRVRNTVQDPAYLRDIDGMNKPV

Rattus norvegicus = species on record: Rattus norvegicus; experiment: Selectivity index, ratio of Ki for rat DOR to Ki for rat MOR
[4] = Selectivity index, ratio of Ki for human KOR to Ki for rat MOR
Mu-type opioid receptor [5] = molecular target: T2, Mu-type opioid receptor (Cavia porcellus, UniProt P97266); experiment: Agonist activity at MOR in Dunkin-Hartley guinea pig ileum assessed as inhibition of EFS-induced contractions incubated for 60 mins
T2 sequence (P97266 whole entry): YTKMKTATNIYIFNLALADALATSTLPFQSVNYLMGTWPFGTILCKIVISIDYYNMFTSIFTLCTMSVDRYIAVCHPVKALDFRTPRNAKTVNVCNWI

[6] = molecular target: T3, Delta-type opioid receptor (Mus musculus, UniProt P32300); experiment: (§1) Agonist activity at DOR in CD1 mouse vas deferens assessed as inhibition of EFS-induced contractions incubated for 60 mins; format: tissue-based
T3 sequence (P32300 whole entry): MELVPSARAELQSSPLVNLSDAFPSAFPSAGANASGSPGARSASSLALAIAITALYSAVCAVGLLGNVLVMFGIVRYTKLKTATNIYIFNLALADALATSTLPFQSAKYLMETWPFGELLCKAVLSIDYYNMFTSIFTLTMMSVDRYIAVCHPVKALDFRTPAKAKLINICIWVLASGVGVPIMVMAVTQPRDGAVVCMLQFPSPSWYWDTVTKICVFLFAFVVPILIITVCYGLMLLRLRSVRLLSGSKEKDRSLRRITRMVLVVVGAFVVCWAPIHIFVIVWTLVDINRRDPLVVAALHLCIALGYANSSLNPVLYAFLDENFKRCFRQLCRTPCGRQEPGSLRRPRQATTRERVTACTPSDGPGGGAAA

[7] = molecular target: T3, Delta-type opioid receptor; experiment: Antagonist activity at DOR in CD1 mouse vas deferens assessed as reduction in DPDPE-induced inhibition of EFS-evoked contractions incubated for 60 mins; format: tissue-based; details: read-out: pA2 (converted)
[8] = molecular target: Delta-type opioid receptor (Mus musculus) (UniProt P32300); experiment: as §1; format: tissue-based
Chain of Delta-type opioid receptor (Mus musculus) (P32300 whole entry): as above

Mu-type opioid receptor [9] = molecular target: T2, Mu-type opioid receptor; experiment: Antagonist activity at MOR in Dunkin-Hartley guinea pig ileum assessed as reduction in DAMGO-induced inhibition of EFS-induced contractions incubated for 60 mins; format: tissue-based; details: read-out: pA2 (converted)
[10] = molecular target: T1, Kappa-type opioid receptor; experiment: Activity at human KOR expressed in EE-HEK293 cells assessed as pEC50 for effect on (-)U50,488H-induced response (reference value: […] +/- […]); format: cell-based
Mus musculus [11] = experiment: Effect on basal tail flick latencies in Swiss […] mouse at 1 to 15 mg/kg, sc during 90 mins by tail flick test; format: ADME, organism-based; details: in vivo, 1.5 h
Mus musculus [12] = experiment: Reduction in morphine-induced antinociceptive effect in sc dosed Swiss […] mouse assessed as tail flick latencies dosed 45 mins before 5 mg/kg, sc morphine injection by tail flick test; format: ADME, organism-based; details: in vivo, 0.75 h

Row | SMILES | pKi (Mu-type opioid receptor [1]) | pKi [2] | pKi [3] | Ratio Ki (Rattus norvegicus) | Ratio Ki [4] | pEC50 (Mu-type opioid receptor [5]) | pEC50 [6] | Kb [7] [µM] | Activity [8] | Kb (Mu-type opioid receptor [9]) [µM] | pEC50 [10] | Activity (Mus musculus [11]) | AD50 (Mus musculus [12]) [mg/kg] | Activity (Mus musculus [12])
1 | C[C@H]1[C@H]2Cc3ccc(O)cc3[C@]1(C)CCN2CCC(=O)Nc1cccc2cccnc12 | 5.47 | 6.27 | 6.64 | 0.16 | 0.07 | – | – | – | – | – | – | – | – | –
2 | C[C@H]1[C@H]2Cc3ccc(O)cc3[C@]1(C)CCN2CCC(=O)Nc1cccc2cnccc12 | 7.30 | 6.74 | 5.54 | 3.6 | 58 | 4.70 | 3.80 | – | – | – | – | – | – | –
3 | C[C@@H](NC(=O)[C@@H](N)Cc1ccc(O)cc1)C(=O)NCC(=O)N(C)[C@@H](Cc1ccccc1)C(=O)NCCO [DAMGO] | – | – | – | – | – | 6.80 | – | – | – | – | – | – | – | –
4 | C[C@H]1[C@H]2Cc3ccc(O)cc3[C@]1(C)CCN2CCC(=O)Nc1ccc2ncccc2c1 | 5.34 | 6.48 | 5.36 | 0.07 | 1 | – | – | – | – | – | – | – | – | –
5 | C[C@H]1[C@H]2Cc3ccc(O)cc3[C@]1(C)CCN2CCC(=O)Nc1cccc2ncccc12 | 5.50 | 6.51 | 5.81 | 0.1 | 0.5 | – | – | – | – | – | – | – | – | –
6 | C[C@H]1[C@H]2Cc3ccc(O)cc3[C@]1(C)CCN2CCC(=O)Nc1ccccc1 | – | – | – | 0.67 | 153 | 6.10 | – | 0.0631 | inactive | – | – | – | – | –
7 | C[C@H]1[C@H]2Cc3ccc(O)cc3[C@]1(C)CCN2CCC(=O)Nc1cnc2ccccc2c1 | 5.92 | 6.13 | 5.19 | 0.62 | 5.4 | – | – | – | – | – | – | – | – | –
8 | C[C@H]1[C@H]2Cc3ccc(O)cc3[C@]1(C)CCN2CCC(=O)Nc1cccc2ccccc12 | 7.42 | 6.68 | 6.10 | 5.5 | 21.1 | – | – | 0.0251 | inactive | 0.00251 | 5.00 | Non-toxic | 2 | Dose-dependent effect
